The subject of the assay is AGS cells (KRAS^G12D). As to the kind of experiment: Detection of cell proliferation in vitro by MTT/MTS method (cell activity experiment). The assay is classed as cell-based. To be noted: Homo sapiens, AGS, 72 h, AGS cells; MTT/MTS; 3 days of drug treatment; read-out: AGS IC50. The method, boiled down: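 After 3-day compound exposure (final DMSO 0.5%), viability of AGS (KRAS G12D) cells, plated 1000/well one day before dosing, was measured at 490 nm following 4 h MTT or MTS incubation. IC50 was fitted from dose–effect curves relative to DMSO-treated wells.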
(Formazan colour is commonly taken as a measure of viable cells.)
On to `Oc1cc2c(c(-c3ncc4c(N5C[C@H]6CC[C@@H](C5)N6)nc(OC[C@@]56CCCN5C[C@H](F)C6)nc4c3F)c1)C(CC(F)F)CC2` (stereo partly drawn) [Example 258, 7-(4-((1R,5S)-3,8-diazabicyclo[3.2.1]octan-3-yl)-8-fluoro-2-(((2R,7aS)-2-fluorotetrahydro-1H-pyrrolizin-7a(5H)-yl)methoxy)pyrido[4,3-d]pyrimidin-7-yl)-1-(2,2-difluoroethyl)-2,3-dihydro-1H-inden-5-ol], for which the IC50 is above 10000 nM.

Consider `Oc1cc2c(c(-c3ncc4c(N5C[C@H]6CC[C@@H](C5)N6)nc(OC[C@@]56CCCN5C[C@H](F)C6)nc4c3F)c1)C(CCF)CC2` (stereo partly drawn) [Example 259, 7-(4-((1R,5S)-3,8-diazabicyclo[3.2.1]octan-3-yl)-8-fluoro-2-(((2R,7aS)-2-fluorotetrahydro-1H-pyrrolizin-7a(5H)-yl)methoxy)pyrido[4,3-d]pyrimidin-7-yl)-1-(2-fluoroethyl)-2,3-dihydro-1H-inden-5-ol], for which the half-inhibitory concentration (IC50) was 2630 nM.

For `Oc1cc2c(c(-c3ncc4c(N5C[C@H]6CC[C@@H](C5)N6)nc(OC[C@@]56CCCN5C[C@H](F)C6)nc4c3F)c1)C(C(F)(F)F)CCC2` (stereo partly drawn) [Example 260, 4-(4-((1R,5S)-3,8-diazabicyclo[3.2.1]octan-3-yl)-8-fluoro-2-(((2R,7aS)-2-fluorotetrahydro-1H-pyrrolizin-7a(5H)-yl)methoxy)pyrido[4,3-d]pyrimidin-7-yl)-5-(trifluoromethyl)-5,6,7,8-tetrahydronaphthalen-2-ol], the half-maximal inhibitory concentration (IC50) came out at 417 nM.

On to `Oc1cc2c(c(-c3ncc4c(N5C[C@H]6CC[C@@H](C5)N6)nc(OC[C@@]56CCCN5C[C@H](F)C6)nc4c3F)c1)C(C(F)F)CCC2` (stereo partly drawn) [Example 261, 4-(4-((1R,5S)-3,8-diazabicyclo[3.2.1]octan-3-yl)-8-fluoro-2-(((2R,7aS)-2-fluorotetrahydro-1H-pyrrolizin-7a(5H)-yl)methoxy)pyrido[4,3-d]pyrimidin-7-yl)-5-(difluoromethyl)-5,6,7,8-tetrahydronaphthalen-2-ol], for which the half-maximal inhibitory concentration (IC50) was determined as 1930 nM.

For `Oc1cc2c(c(-c3ncc4c(N5C[C@H]6CC[C@@H](C5)N6)nc(OC[C@@]56CCCN5C[C@H](F)C6)nc4c3F)c1)C(CF)CCC2` (stereo partly drawn) [Example 262, 4-(4-((1R,5S)-3,8-diazabicyclo[3.2.1]octan-3-yl)-8-fluoro-2-(((2R,7aS)-2-fluorotetrahydro-1H-pyrrolizin-7a(5H)-yl)methoxy)pyrido[4,3-d]pyrimidin-7-yl)-5-(fluoromethyl)-5,6,7,8-tetrahydronaphthalen-2-ol], the 50% inhibitory concentration (IC50) came to 305 nM.

For `CCC1C(=O)Cc2cc(O)cc(-c3ncc4c(N5C[C@H]6CC[C@@H](C5)N6)nc(OC[C@@]56CCCN5C[C@H](F)C6)nc4c3F)c21` (stereo partly drawn) [Example 263, 7-(4-((1R,5S)-3,8-diazabicyclo[3.2.1]octan-3-yl)-8-fluoro-2-(((2R,7aS)-2-fluorotetrahydro-1H-pyrrolizin-7a(5H)-yl)methoxy)pyrido[4,3-d]pyrimidin-7-yl)-1-ethyl-5-hydroxy-1,3-dihydro-2H-inden-2-one], the concentration for half-maximal inhibition (IC50) was above 10000 nM.

As to `C/C=C1\C(=O)Cc2cc(O)cc(-c3ncc4c(N5C[C@H]6CC[C@@H](C5)N6)nc(OC[C@@]56CCCN5C[C@H](F)C6)nc4c3F)c21` [Example 264, (Z)-7-(4-((1R,5S)-3,8-diazabicyclo[3.2.1]octan-3-yl)-8-fluoro-2-(((2R,7aS)-2-fluorotetrahydro-1H-pyrrolizin-7a(5H)-yl)methoxy)pyrido[4,3-d]pyrimidin-7-yl)-1-ethylidene-5-hydroxy-1,3-dihydro-2H-inden-2-one], the IC50 is above 10000 nM.

With `OCC1CCc2cc(O)cc(-c3ncc4c(N5C[C@H]6CC[C@@H](C5)N6)nc(OC[C@@]56CCCN5C[C@H](F)C6)nc4c3F)c21` (stereo partly drawn) [Example 265, 7-(4-((1R,5S)-3,8-diazabicyclo[3.2.1]octan-3-yl)-8-fluoro-2-(((2R,7aS)-2-fluorotetrahydro-1H-pyrrolizin-7a(5H)-yl)methoxy)pyrido[4,3-d]pyrimidin-7-yl)-1-(hydroxymethyl)-2,3-dihydro-1H-inden-5-ol], the half-maximal inhibitory concentration (IC50) was above 10000 nM.

Regarding `CC1Cc2cc(O)cc(-c3ncc4c(N5C[C@H]6CC[C@@H](C5)N6)nc(OC[C@@]56CCCN5C[C@H](F)C6)nc4c3F)c2C1` (stereo partly drawn) [Example 266, 7-(4-((1R,5S)-3,8-diazabicyclo[3.2.1]octan-3-yl)-8-fluoro-2-(((2R,7aS)-2-fluorotetrahydro-1H-pyrrolizin-7a(5H)-yl)methoxy)pyrido[4,3-d]pyrimidin-7-yl)-2-methyl-2,3-dihydro-1H-inden-5-ol], the 50% inhibitory concentration (IC50) was determined as 52 nM.

In the case of `Oc1cc2c(c(-c3ncc4c(N5C[C@H]6CC[C@@H](C5)N6)nc(OC[C@@]56CCCN5C[C@H](F)C6)nc4c3F)c1)C(C1CC1)CC2` (stereo partly drawn) [Example 267, 7-(4-((1R,5S)-3,8-diazabicyclo[3.2.1]octan-3-yl)-8-fluoro-2-(((2R,7aS)-2-fluorotetrahydro-1H-pyrrolizin-7a(5H)-yl)methoxy)pyrido[4,3-d]pyrimidin-7-yl)-1-cyclopropyl-2,3-dihydro-1H-inden-5-ol], the IC50 was found to be 1050 nM.

For the compound `CC(C)C1CCc2cc(O)cc(-c3ncc4c(N5C[C@H]6CC[C@@H](C5)N6)nc(OC[C@@]56CCCN5C[C@H](F)C6)nc4c3F)c21` (stereo partly drawn) [Example 268, 7-(4-((1R,5S)-3,8-diazabicyclo[3.2.1]octan-3-yl)-8-fluoro-2-(((2R,7aS)-2-fluorotetrahydro-1H-pyrrolizin-7a(5H)-yl)methoxy)pyrido[4,3-d]pyrimidin-7-yl)-1-isopropyl-2,3-dihydro-1H-inden-5-ol], the 50% inhibitory concentration (IC50) amounted to 4000 nM.

In the case of `COC1CCc2cc(O)cc(-c3ncc4c(N5C[C@H]6CC[C@@H](C5)N6)nc(OC[C@@]56CCCN5C[C@H](F)C6)nc4c3F)c21` (stereo partly drawn) [Example 269, 7-(4-((1R,5S)-3,8-diazabicyclo[3.2.1]octan-3-yl)-8-fluoro-2-(((2R,7aS)-2-fluorotetrahydro-1H-pyrrolizin-7a(5H)-yl)methoxy)pyrido[4,3-d]pyrimidin-7-yl)-1-methoxy-2,3-dihydro-1H-inden-5-ol], the half-maximal inhibitory concentration (IC50) was found to be 30 nM.

Consider `COC1CCCc2cc(O)cc(-c3ncc4c(N5C[C@H]6CC[C@@H](C5)N6)nc(OC[C@@]56CCCN5C[C@H](F)C6)nc4c3F)c21` (stereo partly drawn) [Example 270, 4-(4-((1R,5S)-3,8-diazabicyclo[3.2.1]octan-3-yl)-8-fluoro-2-(((2R,7aS)-2-fluorotetrahydro-1H-pyrrolizin-7a(5H)-yl)methoxy)pyrido[4,3-d]pyrimidin-7-yl)-5-methoxy-5,6,7,8-tetrahydronaphthalen-2-ol], for which the IC50 stood at 20 nM.

As to `Oc1cc2c(c(-c3ncc4c(N5C[C@H]6CC[C@@H](C5)N6)nc(OC[C@@]56CCCN5C[C@H](F)C6)nc4c3F)c1)CCCC2` [Example 271, 4-(4-((1R,5S)-3,8-diazabicyclo[3.2.1]octan-3-yl)-8-fluoro-2-(((2R,7aS)-2-fluorotetrahydro-1H-pyrrolizin-7a(5H)-yl)methoxy)pyrido[4,3-d]pyrimidin-7-yl)-5,6,7,8-tetrahydronaphthalen-2-ol], the IC50 was 11 nM.

On to `Oc1cc2c(c(-c3ncc4c(N5C[C@H]6CC[C@@H](C5)N6)nc(OC[C@@]56CCCN5C[C@H](F)C6)nc4c3F)c1)C(F)CCC2` (stereo partly drawn) [Example 272, 4-(4-((1R,5S)-3,8-diazabicyclo[3.2.1]octan-3-yl)-8-fluoro-2-(((2R,7aS)-2-fluorotetrahydro-1H-pyrrolizin-7a(5H)-yl)methoxy)pyrido[4,3-d]pyrimidin-7-yl)-5-fluoro-5,6,7,8-tetrahydronaphthalen-2-ol], for which the 50% inhibitory concentration (IC50) is 70 nM.

For `CN1CCc2cc(O)cc(-c3ncc4c(N5C[C@H]6CC[C@@H](C5)N6)nc(OC[C@@]56CCCN5C[C@H](F)C6)nc4c3F)c2C1=O` [Example 273, 8-(4-((1R,5S)-3,8-diazabicyclo[3.2.1]octan-3-yl)-8-fluoro-2-(((2R,7aS)-2-fluorotetrahydro-1H-pyrrolizin-7a(5H)-yl)methoxy)pyrido[4,3-d]pyrimidin-7-yl)-6-hydroxy-2-methyl-3,4-dihydroisoquinolin-1(2H)-one], the half-inhibitory concentration (IC50) is above 2500 nM.

Consider `CCn1cnc2cc(O)cc(-c3ncc4c(N5C[C@H]6CC[C@@H](C5)N6)nc(OC[C@@]56CCCN5C[C@H](F)C6)nc4c3F)c21` [Example 278, 7-(4-((1R,5S)-3,8-diazabicyclo[3.2.1]octan-3-yl)-8-fluoro-2-(((2R,7aS)-2-fluorotetrahydro-1H-pyrrolizin-7a(5H)-yl)methoxy)pyrido[4,3-d]pyrimidin-7-yl)-1-ethyl-1H-benzo[d]imidazol-5-ol], for which the half-inhibitory concentration (IC50) was above 10000 nM.

`Cn1cnc2cc(O)cc(-c3ncc4c(N5C[C@H]6CC[C@@H](C5)N6)nc(OC[C@@]56CCCN5C[C@H](F)C6)nc4c3F)c21` [Example 279, 7-(4-((1R,5S)-3,8-diazabicyclo[3.2.1]octan-3-yl)-8-fluoro-2-(((2R,7aS)-2-fluorotetrahydro-1H-pyrrolizin-7a(5H)-yl)methoxy)pyrido[4,3-d]pyrimidin-7-yl)-1-methyl-1H-benzo[d]imidazol-5-ol]: the IC50 is above 10000 nM.

Turning to `CC12CC1CCc1cc(O)cc(-c3ccc4c(N5C[C@H]6CC[C@@H](C5)N6)nc(OC[C@@]56CCCN5C[C@H](F)C6)nc4c3F)c12` (stereo partly drawn) [Example 281, 7-(4-((1R,5S)-3,8-diazabicyclo[3.2.1]octan-3-yl)-8-fluoro-2-(((2R,7aS)-2-fluorotetrahydro-1H-pyrrolizin-7a(5H)-yl)methoxy)quinazolin-7-yl)-7b-methyl-1a, 2,3,7b-tetrahydro-1H-cyclopropa[a]naphthalen-5-ol], the concentration for half-maximal inhibition (IC50) came to 537 nM.

Turning to `CC1CCCc2cc(O)cc(-c3ccc4c(N5C[C@H]6CC[C@@H](C5)N6)nc(OC[C@@]56CCCN5C[C@H](F)C6)nc4c3F)c21` (stereo partly drawn) [Example 282, 4-(4-((1R,5S)-3,8-diazabicyclo[3.2.1]octan-3-yl)-8-fluoro-2-(((2R,7aS)-2-fluorotetrahydro-1H-pyrrolizin-7a(5H)-yl)methoxy)quinazolin-7-yl)-5-methyl-5,6,7,8-tetrahydronaphthalen-2-ol], the IC50 stood at 15 nM.

For orientation: IC50 means the concentration that gives 50% inhibition.

The values above are taken from patent publication US20240300980A1, “HETEROCYCLIC COMPOUNDS AS KRAS INHIBITOR, AND PREPARATION THEREFOR AND USE THEREOF IN TREATMENT” (SHANGHAI KECHOW PHARMA, INC., priority 2021, published 2024).
